Data as given in patent US20240246967A1, “AXL COMPOUNDS” (ARCUS BIOSCIENCES, INC., priority 2021, published 2024).

Each compound was assayed against T1, human MER (Homo sapiens, UniProt Q12866) (assay: HTRF KinEASE-TK biochemical potency assay, MER). Settings: 1 nM MER, 700 μM ATP, 800 nM TK Substrate-biotin.
T1 construct: purchased Invitrogen
T1 sequence (Q12866 21-999): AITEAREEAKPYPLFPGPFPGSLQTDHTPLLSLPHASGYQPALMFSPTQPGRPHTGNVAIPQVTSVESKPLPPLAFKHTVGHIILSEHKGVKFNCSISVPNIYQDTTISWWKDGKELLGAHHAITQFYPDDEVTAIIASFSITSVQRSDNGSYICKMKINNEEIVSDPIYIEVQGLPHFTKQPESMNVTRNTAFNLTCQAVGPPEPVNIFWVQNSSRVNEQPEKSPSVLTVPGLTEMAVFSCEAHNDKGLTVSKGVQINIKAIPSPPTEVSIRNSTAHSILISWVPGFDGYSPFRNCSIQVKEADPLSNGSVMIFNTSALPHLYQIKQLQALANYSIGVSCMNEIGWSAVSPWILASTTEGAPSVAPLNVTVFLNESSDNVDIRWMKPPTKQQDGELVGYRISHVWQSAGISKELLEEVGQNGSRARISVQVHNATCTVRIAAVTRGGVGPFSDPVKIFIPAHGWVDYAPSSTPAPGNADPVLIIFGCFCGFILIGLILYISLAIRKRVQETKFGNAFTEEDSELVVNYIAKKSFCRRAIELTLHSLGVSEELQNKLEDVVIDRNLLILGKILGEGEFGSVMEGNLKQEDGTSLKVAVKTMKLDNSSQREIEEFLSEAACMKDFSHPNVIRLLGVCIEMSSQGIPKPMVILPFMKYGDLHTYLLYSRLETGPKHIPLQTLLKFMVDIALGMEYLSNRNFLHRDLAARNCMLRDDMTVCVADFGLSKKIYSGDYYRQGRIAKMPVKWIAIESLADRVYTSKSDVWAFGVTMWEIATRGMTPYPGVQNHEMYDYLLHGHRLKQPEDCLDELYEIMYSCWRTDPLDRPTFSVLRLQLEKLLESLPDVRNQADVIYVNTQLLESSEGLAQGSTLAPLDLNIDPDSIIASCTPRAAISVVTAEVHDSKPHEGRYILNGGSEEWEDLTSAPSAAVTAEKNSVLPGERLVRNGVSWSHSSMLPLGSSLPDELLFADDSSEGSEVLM
Summary of the method: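 Recombinant human kinase preincubated 1 h at RT with compound, then reacted 2 h at RT with 800 nM biotin-TK substrate and 700 μM ATP (final; 5 nM AXL, 1 nM TYRO3 or MER) in HEPES pH 7.4, MgCl2, BSA, DTT, 1% DMSO. HTRF 665/620 ratio read; percent activity versus DMSO and pre-quenched controls.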

IC50 [nM] | Compound
100 to 1000 | CC1(N2CCC[C@@H]2CO)CCc2ccc(-c3cnc4[nH]nc(-c5ccc(S(=O)(=O)C6CC6)cc5)c4c3)cc2CC1 (stereo partly drawn) [Example 3, [(2R)-1-(2-{3-[4-(Cyclopropanesulfonyl)phenyl]-1H-pyrazolo[3,4-b]pyridin-5-yl}-7-methyl-6,7,8,9-tetrahydro-5H-benzo[7]annulen-7-yl)pyrrolidin-2-yl]methanol]
100 to 1000 | C[C@@H]1CCCN1C1CCc2ccc(-c3cnc4[nH]nc(-c5cnc(C(C)(C)O)c(Cl)c5)c4c3)cc2CC1 (stereo partly drawn) [Example 65, 2-[3-Chloro-5-(5-{7-[(2R)-2-methylpyrrolidin-1-yl]-6,7,8,9-tetrahydro-5H-benzo[7]annulen-2-yl}-1H-pyrazolo[3,4-b]pyridin-3-yl)pyridin-2-yl]propan-2-ol]
< 100 | CCC1(N2CCC[C@@H]2CO)CCc2ccc(-c3cnc4[nH]nc(-c5ccc(C(N)=O)c(Cl)c5)c4c3)cc2CC1 (stereo partly drawn) [Example 74, 2-Chloro-4-(5-{7-ethyl-7-[(2R)-2-(hydroxymethyl)pyrrolidin-1-yl]-6,7,8,9-tetrahydro-5H-benzo[7]annulen-2-yl}-1H-pyrazolo[3,4-b]pyridin-3-yl)benzamide]
100 to 1000 | C[C@@H]1CCCN1C1CCc2ccc(-c3cnc4[nH]nc(-c5ccc(C6(O)CCOC6)c(Cl)c5)c4c3)cc2CC1 (stereo partly drawn) [Example 63, 3-[2-Chloro-4-(5-{7-[(2R)-2-methylpyrrolidin-1-yl]-6,7,8,9-tetrahydro-5H-benzo[7]annulen-2-yl}-1H-pyrazolo[3,4-b]pyridin-3-yl)phenyl]oxolan-3-ol]
> 1000 | C[C@@H]1CCCN1C1CCc2ccc(-c3cnc4[nH]nc(-c5ccc(C6(O)COC6)c(Cl)c5)c4c3)cc2CC1 (stereo partly drawn) [Example 64, 3-[2-Chloro-4-(5-{7-[(2R)-2-methylpyrrolidin-1-yl]-6,7,8,9-tetrahydro-5H-benzo[7]annulen-2-yl}-1H-pyrazolo[3,4-b]pyridin-3-yl)phenyl]oxetan-3-ol]
100 to 1000 | C[C@@H]1CCCN1C1(C)CCc2ccc(-c3cnc4[nH]nc(-c5ccc(S(=O)(=O)C6CC6)cc5)c4c3)cc2CC1 (stereo partly drawn) [Example 1, 3-(4-(Cyclopropylsulfonyl)phenyl)-5-(7-methyl-7-((R)-2-methylpyrrolidin-1-yl)-6,7,8,9-tetrahydro-5H-benzo[7]annulen-2-yl)-1H-pyrazolo[3,4-b]pyridine]
100 to 1000 | NC(=O)c1ccc(-c2n[nH]c3ncc(-c4ccc5c(c4)CCC(N4CCCC4)CC5)cc23)cc1C(F)(F)F (stereo not shown) [Example 80, 4-(5-(7-(Pyrrolidin-1-yl)-6,7,8,9-tetrahydro-5H-benzo[7]annulen-2-yl)-1H-pyrazolo[3,4-b]pyridin-3-yl)-2-(trifluoromethyl)benzamide]
100 to 1000 | Cc1cc(-c2n[nH]c3ncc(-c4ccc5c(c4)CCC(N4CCCC4)CC5)cc23)cc(F)c1C(N)=O (stereo not shown) [Example 79, 2-Fluoro-6-methyl-4-(5-(7-(pyrrolidin-1-yl)-6,7,8,9-tetrahydro-5H-benzo[7]annulen-2-yl)-1H-pyrazolo[3,4-b]pyridin-3-yl)benzamide]
< 100 | C[C@@H]1CCCN1C1(C)CCc2ccc(-c3cnc4[nH]nc(-c5ccc(S(N)(=O)=O)c(Cl)c5)c4c3)cc2CC1 (stereo partly drawn) [Example 93, 2-Chloro-4-(5-(7-methyl-7-((R)-2-methylpyrrolidin-1-yl)-6,7,8,9-tetrahydro-5H-benzo[7]annulen-2-yl)-1H-pyrazolo[3,4-b]pyridin-3-yl)benzenesulfonamide]
> 1000 | CC(C)NC(=O)c1ccc(-c2n[nH]c3ncc(-c4ccc5c(c4)CCC(C)(N4CCC[C@H]4C)CC5)cc23)cc1 (stereo partly drawn) [Example 70, 4-(5-{7-Methyl-7-[(2R)-2-methylpyrrolidin-1-yl]-6,7,8,9-tetrahydro-5H-benzo[7]annulen-2-yl}-1H-pyrazolo[3,4-b]pyridin-3-yl)-N-(propan-2-yl)benzamide]
100 to 1000 | C[C@@H]1CCCN1C1(C)CCc2ccc(-c3cnc4[nH]nc(-c5ccc(C(=O)NC6CC6)cc5)c4c3)cc2CC1 (stereo partly drawn) [Example 69, N-Cyclopropyl-4-(5-{7-methyl-7-[(2R)-2-methylpyrrolidin-1-yl]-6,7,8,9-tetrahydro-5H-benzo[7]annulen-2-yl}-1H-pyrazolo[3,4-b]pyridin-3-yl)benzamide]
100 to 1000 | NS(=O)(=O)c1ccc(-c2n[nH]c3ncc(-c4ccc5c(c4)CC[C@@H](N4CCCC4)CC5)cc23)cc1Cl [Example 91, (S)-2-Chloro-4-(5-(7-(pyrrolidin-1-yl)-6,7,8,9-tetrahydro-5H-benzo[7]annulen-2-yl)-1H-pyrazolo[3,4-b]pyridin-3-yl)benzenesulfonamide]
< 100 | CCC1(N2CCC[C@H]2CO)CCc2ccc(-c3cnc4[nH]nc(-c5ccc(C(N)=O)c(Cl)c5)c4c3)cc2CC1 (stereo partly drawn) [Example 75, 2-Chloro-4-(5-{7-ethyl-7-[(2S)-2-(hydroxymethyl)pyrrolidin-1-yl]-6,7,8,9-tetrahydro-5H-benzo[7]annulen-2-yl}-1H-pyrazolo[3,4-b]pyridin-3-yl)benzamide]
< 100 | Cc1cc(-c2n[nH]c3ncc(-c4ccc5c(c4)CC[C@@H](N4CCCC4)CC5)cc23)cc(F)c1C(N)=O [Example 83, (S)-2-Fluoro-6-methyl-4-(5-(7-(pyrrolidin-1-yl)-6,7,8,9-tetrahydro-5H-benzo[7]annulen-2-yl)-1H-pyrazolo[3,4-b]pyridin-3-yl)benzamide]
> 1000 | Cc1cc2c(cc1-c1cnc3[nH]nc(-c4ccc(C(C)(C)O)c(Cl)c4)c3c1)CCC(N1CCC[C@H]1C)CC2 (stereo partly drawn) [Example 90, 2-[2-Chloro-4-(5-{3-methyl-7-[(2R)-2-methylpyrrolidin-1-yl]-6,7,8,9-tetrahydro-5H-benzo[7]annulen-2-yl}-1H-pyrazolo[3,4-b]pyridin-3-yl)phenyl]propan-2-ol]
< 100 | O=C(c1ccc(-c2n[nH]c3ncc(-c4ccc5c(c4)CC[C@@H](N4CCCC4)CC5)cc23)cc1Cl)N1CCNCC1 [Example 82, (S)-(2-Chloro-4-(5-(7-(pyrrolidin-1-yl)-6,7,8,9-tetrahydro-5H-benzo[7]annulen-2-yl)-1H-pyrazolo[3,4-b]pyridin-3-yl)phenyl)(piperazin-1-yl)methanone]
> 1000 | C[C@@H]1CCCN1C1(C)CCc2ccc(-c3cnc4[nH]nc(-c5ccc(C(=O)NC6CCOCC6)cc5)c4c3)cc2CC1 (stereo partly drawn) [Example 88, 4-(5-(7-Methyl-7-((R)-2-methylpyrrolidin-1-yl)-6,7,8,9-tetrahydro-5H-benzo[7]annulen-2-yl)-1H-pyrazolo[3,4-b]pyridin-3-yl)-N-(tetrahydro-2H-pyran-4-yl)benzamide]
< 100 | C[C@@H]1CCCN1C1(C)CCc2ccc(-c3cnc4[nH]nc(-c5ccc(C(N)=O)c(Cl)c5)c4c3)cc2CC1 (stereo partly drawn) [Example 68, 2-Chloro-4-(5-{7-methyl-7-[(2R)-2-methylpyrrolidin-1-yl]-6,7,8,9-tetrahydro-5H-benzo[7]annulen-2-yl}-1H-pyrazolo[3,4-b]pyridin-3-yl)benzamide]
100 to 1000 | COC1CCN(C(=O)c2ccc(-c3n[nH]c4ncc(-c5ccc6c(c5)CCC(C)(N5CCC[C@H]5C)CC6)cc34)cc2)CC1 (stereo partly drawn) [Example 89, (4-Methoxypiperidin-1-yl)(4-(5-(7-methyl-7-((R)-2-methylpyrrolidin-1-yl)-6,7,8,9-tetrahydro-5H-benzo[7]annulen-2-yl)-1H-pyrazolo[3,4-b]pyridin-3-yl)phenyl)methanone]
